According to ChEMBL document CHEMBL1201862, “PubChem BioAssay data set” (2004):
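Results reflect a 48-hour exposure of cells in 96-well plates to compound at five concentrations. The concentration for 50% growth inhibition is given as GI50.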 Calls of active or inactive are those of the source. Cut-off read from the data, not from the text of the source: active = GI50 up to about 1.1 µM and inactive = higher.

Tests used:
Test in all cases: NCI anticancer screen, dose series, 48 h
HOP-92 = test system: HOP-92
RXF 393 = test system: RXF 393
UACC-257 = test system: UACC-257
UO-31 = test system: UO-31
TK-10 = test system: TK-10
MDA-MB-435 = test system: MDA-MB-435
SK-OV-3 = test system: SK-OV-3
OVCAR-5 = test system: OVCAR-5
K562 = test system: K562
SF-268 = test system: SF-268
NCI/ADR-RES = test system: NCI/ADR-RES
OVCAR-4 = test system: OVCAR-4
RPMI-8226 = test system: RPMI-8226
NCI-H226 = test system: NCI-H226
SNB-75 = test system: SNB-75
SK-MEL-5 = test system: SK-MEL-5
SF-295 = test system: SF-295
NCI-H460 = test system: NCI-H460
SF-539 = test system: SF-539
MCF7 = test system: MCF7

SMILES	GI50 (HOP-92)	GI50 (RXF 393)	GI50 (UACC-257)	GI50 (UO-31)	GI50 (TK-10)	GI50 (MDA-MB-435)	GI50 (SK-OV-3)	GI50 (OVCAR-5)	GI50 (K562)	GI50 (SF-268)	GI50 (NCI/ADR-RES)	GI50 (OVCAR-4)	GI50 (RPMI-8226)	GI50 (NCI-H226)	GI50 (SNB-75)	GI50 (SK-MEL-5)	GI50 (SF-295)	GI50 (NCI-H460)	GI50 (SF-539)	GI50 (MCF7)
CCN(CC)c1ccc2nc3ccc(/N=N/c4c(O)ccc5ccccc45)cc3[n+](-c3ccccc3)c2c1	> 100 µM (inactive)	> 100 µM (inactive)	> 100 µM (inactive)	> 100 µM (inactive)	> 100 µM (inactive)	> 100 µM (inactive)	> 100 µM (inactive)	> 100 µM (inactive)	> 100 µM (inactive)	> 100 µM (inactive)	> 100 µM (inactive)	> 100 µM (inactive)	> 100 µM (inactive)	> 100 µM (inactive)	> 100 µM (inactive)	> 100 µM (inactive)	> 100 µM (inactive)	–	–	–
COc1cc(OC)nc(Nc2c(C#N)c3nc4ccccc4n3c3ccccc23)n1	–	39.8 µM (inactive)	52.7 µM (inactive)	53.1 µM (inactive)	26.5 µM (inactive)	> 100 µM (inactive)	51.6 µM (inactive)	> 100 µM (inactive)	> 100 µM (inactive)	29.9 µM (inactive)	29.8 µM (inactive)	22.3 µM (inactive)	> 100 µM (inactive)	39.4 µM (inactive)	16.4 µM (inactive)	> 100 µM (inactive)	21.6 µM (inactive)	43 µM (inactive)	17.6 µM (inactive)	22.2 µM (inactive)
CCCCS(=O)(=O)CCC(N)C(=O)O (stereo unspecified)	–	36.1 µM (inactive)	> 100 µM (inactive)	> 100 µM (inactive)	> 100 µM (inactive)	–	> 100 µM (inactive)	> 100 µM (inactive)	> 100 µM (inactive)	> 100 µM (inactive)	> 100 µM (inactive)	> 100 µM (inactive)	–	> 100 µM (inactive)	> 100 µM (inactive)	> 100 µM (inactive)	> 100 µM (inactive)	> 100 µM (inactive)	> 100 µM (inactive)	> 100 µM (inactive)
O=C1OC(c2ccc([N+](=O)[O-])cc2)=N/C1=C\c1ccc(Cl)cc1	> 100 µM (inactive)	62.8 µM (inactive)	> 100 µM (inactive)	–	> 100 µM (inactive)	> 100 µM (inactive)	> 100 µM (inactive)	85.1 µM (inactive)	> 100 µM (inactive)	> 100 µM (inactive)	–	> 100 µM (inactive)	> 100 µM (inactive)	> 100 µM (inactive)	> 100 µM (inactive)	> 100 µM (inactive)	> 100 µM (inactive)	> 100 µM (inactive)	> 100 µM (inactive)	> 100 µM (inactive)
CC(N)Cc1ccc(F)cc1 (stereo unspecified)	> 100 µM (inactive)	> 100 µM (inactive)	> 100 µM (inactive)	> 100 µM (inactive)	> 100 µM (inactive)	–	> 100 µM (inactive)	> 100 µM (inactive)	> 100 µM (inactive)	> 100 µM (inactive)	–	> 100 µM (inactive)	> 100 µM (inactive)	> 100 µM (inactive)	> 100 µM (inactive)	> 100 µM (inactive)	> 100 µM (inactive)	> 100 µM (inactive)	> 100 µM (inactive)	–
Cc1ccc2c(O)cc(-c3ccc(F)cc3)nc2n1	19.7 µM (inactive)	–	34.1 µM (inactive)	59.2 µM (inactive)	46.6 µM (inactive)	–	40.2 µM (inactive)	70.1 µM (inactive)	22 µM (inactive)	52.7 µM (inactive)	25.7 µM (inactive)	44.5 µM (inactive)	24.9 µM (inactive)	37.1 µM (inactive)	14.1 µM (inactive)	–	–	–	42.5 µM (inactive)	26.4 µM (inactive)
NC(=O)COc1ccccc1	> 100 µM (inactive)	> 100 µM (inactive)	> 100 µM (inactive)	> 100 µM (inactive)	> 100 µM (inactive)	–	> 100 µM (inactive)	> 100 µM (inactive)	> 100 µM (inactive)	> 100 µM (inactive)	–	> 100 µM (inactive)	> 100 µM (inactive)	> 100 µM (inactive)	> 100 µM (inactive)	> 100 µM (inactive)	> 100 µM (inactive)	> 100 µM (inactive)	> 100 µM (inactive)	–
O=C(NNC(=S)NC1CCCCC1)C12CC3CC(CC(C3)C1)C2	–	> 100 µM (inactive)	> 100 µM (inactive)	> 100 µM (inactive)	> 100 µM (inactive)	> 100 µM (inactive)	> 100 µM (inactive)	> 100 µM (inactive)	> 100 µM (inactive)	> 100 µM (inactive)	> 100 µM (inactive)	> 100 µM (inactive)	> 100 µM (inactive)	> 100 µM (inactive)	52.2 µM (inactive)	> 100 µM (inactive)	> 100 µM (inactive)	> 100 µM (inactive)	> 100 µM (inactive)	> 100 µM (inactive)
CN(CCCn1ccnc1[N+](=O)[O-])CCCn1ccnc1[N+](=O)[O-]	–	> 100 µM (inactive)	> 100 µM (inactive)	> 100 µM (inactive)	> 100 µM (inactive)	> 100 µM (inactive)	> 100 µM (inactive)	> 100 µM (inactive)	> 100 µM (inactive)	> 100 µM (inactive)	> 100 µM (inactive)	> 100 µM (inactive)	> 100 µM (inactive)	> 100 µM (inactive)	> 100 µM (inactive)	> 100 µM (inactive)	> 100 µM (inactive)	> 100 µM (inactive)	> 100 µM (inactive)	> 100 µM (inactive)
S=C(NN=C1NCCCCN1)Nc1ccccc1	–	–	36 µM (inactive)	34 µM (inactive)	–	39.7 µM (inactive)	79.8 µM (inactive)	> 100 µM (inactive)	31.6 µM (inactive)	87.3 µM (inactive)	> 100 µM (inactive)	–	9.93 µM (inactive)	> 100 µM (inactive)	80.9 µM (inactive)	48.8 µM (inactive)	31.5 µM (inactive)	37.2 µM (inactive)	> 100 µM (inactive)	31.2 µM (inactive)
CC(C)/C(Cl)=N\OC(=O)Nc1ccc(F)cc1	–	16.1 µM (inactive)	14.3 µM (inactive)	5.85 µM (inactive)	4.8 µM (inactive)	–	17.8 µM (inactive)	14.6 µM (inactive)	1.5 µM (inactive)	24.6 µM (inactive)	6.9 µM (inactive)	–	1.94 µM (inactive)	18.2 µM (inactive)	–	13.6 µM (inactive)	14.4 µM (inactive)	18.1 µM (inactive)	16.9 µM (inactive)	4.62 µM (inactive)
CN1CCC(C(=O)NNc2ccccc2)CC1	> 100 µM (inactive)	> 100 µM (inactive)	18.6 µM (inactive)	3.16 µM (inactive)	18.3 µM (inactive)	–	> 100 µM (inactive)	8.3 µM (inactive)	0.931 µM (active)	7.05 µM (inactive)	–	13.3 µM (inactive)	24.8 µM (inactive)	> 100 µM (inactive)	> 80.2 µM (inactive)	14.4 µM (inactive)	2.12 µM (inactive)	5.62 µM (inactive)	7.87 µM (inactive)	–
O=C1N=C2N=C(c3ccc(Cl)cc3)N(c3ccc(Cl)cc3)N2Sc2ccccc21	86.5 µM (inactive)	32.8 µM (inactive)	> 100 µM (inactive)	32.4 µM (inactive)	> 100 µM (inactive)	–	> 100 µM (inactive)	> 100 µM (inactive)	> 100 µM (inactive)	> 100 µM (inactive)	–	> 100 µM (inactive)	> 100 µM (inactive)	> 100 µM (inactive)	> 100 µM (inactive)	> 100 µM (inactive)	64.6 µM (inactive)	81.3 µM (inactive)	> 100 µM (inactive)	–
COc1ccc(-n2c(C)nc3ccc(/N=C/c4ccccc4)cc3c2=O)cc1	–	> 100 µM (inactive)	> 100 µM (inactive)	> 100 µM (inactive)	> 100 µM (inactive)	> 100 µM (inactive)	–	> 100 µM (inactive)	> 100 µM (inactive)	> 100 µM (inactive)	> 100 µM (inactive)	> 100 µM (inactive)	51.2 µM (inactive)	> 100 µM (inactive)	> 100 µM (inactive)	> 100 µM (inactive)	> 100 µM (inactive)	> 100 µM (inactive)	–	> 100 µM (inactive)
COc1cc(C(=O)CBr)c(OC)cc1C	–	> 100 µM (inactive)	> 100 µM (inactive)	97.3 µM (inactive)	> 100 µM (inactive)	> 100 µM (inactive)	> 100 µM (inactive)	> 100 µM (inactive)	> 100 µM (inactive)	> 100 µM (inactive)	> 100 µM (inactive)	–	> 100 µM (inactive)	75.5 µM (inactive)	> 10 µM (inactive)	52.7 µM (inactive)	> 100 µM (inactive)	–	> 100 µM (inactive)	> 100 µM (inactive)
COP(=O)(CP(=O)(OC)OCCC(C)CCC=C(C)C)OC (stereo unspecified)	–	> 100 µM (inactive)	> 100 µM (inactive)	> 100 µM (inactive)	> 100 µM (inactive)	> 100 µM (inactive)	> 100 µM (inactive)	> 100 µM (inactive)	> 100 µM (inactive)	> 100 µM (inactive)	> 100 µM (inactive)	> 100 µM (inactive)	–	> 100 µM (inactive)	> 100 µM (inactive)	> 100 µM (inactive)	> 100 µM (inactive)	> 100 µM (inactive)	> 100 µM (inactive)	> 100 µM (inactive)
